Source: patent publication US7067290B2, “Method for production of polyketides” (Kosan Biosciences Incorporated, priority 2002, dated 2006)

Experiment: pH stability of triketide lactones in fermentation supernatant
Format: physicochemical
Conditions: pH values above 6–8 (FIG. 1)
Procedure: Samples were centrifuged to remove cells and insoluble media components. If necessary, supernatants were diluted in 1:1 acetonitrile-water with 0.1% acetic acid. Samples were analyzed by HPLC-MS/MS, quantitating by comparison with an internal analytical standard of 2,4-dimethyl-3-hydroxyoctanoic acid δ-lactone (“P-TKL”). In cases where the purity of the analytic standard was doubtful, titers were renorted as arbitrary units. Samples were injected onto a C18 reversed-phase HPLC column and eluted with a gradient of acetonitrile in water containing 0.1% formic acid. Triketide lactones were detected using multiple reaction monitoring of the following MS/MS transitions: TKL: m/z 173 to 109; CM-TKL: m/z 193 to 119; V-TKL: m/z 171 to 107; and P-TKL: m/z 181 to 123.
To test the stability of CM-TKL and V-TKL in fermentation supernatant, the following experiment was undertaken. Supernatant from flask cultures was collected at the end of an experiment by centrifugation at 2700×g for 20 minutes. The supernatant was divided into four portions. The pH of the control portion was adjusted to 3.5, and that sample was frozen at −20° C. […] The samples were incubated for 18 hours at 30° C. then analyzed for product as described previously with the data reported as percent of the control.

stability in fermentation broth | SMILES
unstable | C[C@@H]1[C@H](O)[C@@H](C)C(=O)O[C@@H]1CCl [CM-TKL]
unstable | C=C[C@H]1OC(=O)[C@H](C)[C@@H](O)[C@H]1C [V-TKL]
